# Structures can show the parent of a compound that is named as a salt.
# Tests used:
# human α-thrombin = target: T1, human α-thrombin (Homo sapiens, UniProt P00734); experiment: Enzymatic assay for thrombin (fluorogenic peptide substrate Boc-VPR-AMC); type: biochemical
# T1 construct: enzyme (human α-thrombin (BioPharm® Lab.)) in assay buffer; purchased BioPharm® Lab
# Experimental: The thrombin assay utilizes a fluorogenic peptide substrate (Boc-VPR-AMC (R&D Systems) and was run at room temperature in an assay buffer containing 20 mM Hepes, pH 7.4, 140 mM NaCl and 0.1% Tween 20. Assay parameters were adjusted such that the assay was linear with respect to time, enzyme, and substrate concentrations. Under these optimized assays conditions, IC50 values were equivalent to Ki values, except in a few cases of “tight binding” inhibitors. Cases of “tight binding” or possible “slow binding” inhibitors were handled by the methods described in Copeland R. A. (2013) Evaluation of Enzyme Inhibitors in Drug Discovery. 2nd Ed. John Wiley and Sons, Inc., Chapters 5-7.
# The thrombin assay protocol was carried out as follows. Test compounds were serially diluted in DMSO and then 100 nL of each dilution was transferred to the assay plate(s). 10 μL of Assay Buffer was added, followed by 15 μL of enzyme (human α-thrombin (BioPharm® Lab.)) in assay buffer. 15 μL of substrate in assay buffer was then added and the sample mixed to start the reaction. After 20 min at room temperature, 15 μL of a stop solution (0.1 M acetic acid) was added, the sample was mixed, and the plates were read on a SpectraMax® i3x Microplate Reader with the data exported as Excel files. Each assay plate included a “no inhibitor” (DMSO only) control, a “no enzyme” control, and a reference inhibitor control. % Activity values=100*(ave. test comp. fluorescence−ave. “no enz” fluorescence)/(ave. “DMSO only” fluorescence−ave. “no enz” fluorescence). IC50 and Ki values were very reproducible, with values falling well within ±2-fold.
# MASP-2 (CCP1-CCP2-SP) = target: T2, MASP-2 (CCP1-CCP2-SP) (Homo sapiens, UniProt O00187); experiment: Enzymatic assay for MASP-2 inhibitory activity (fluorogenic substrate); type: biochemical
# T2 construct: 15 μL of Enzyme MASP-2 (CCP1-CCP2-SP) in Assay Buffer
# Experimental: The MASP-2 assay utilizes a fluorogenic substrate, based on the cleavage site for its natural substrate C2. The assay was run at room temperature in an assay buffer containing 20 mM HEPES, pH 7.4, 140 mM NaCl and 0.1% Tween 20. Assay parameters were adjusted such that the assay was linear with respect to time, enzyme, and substrate concentrations. Under the optimized assays conditions, IC50 values were equivalent to Ki values, except in the few cases of “tight binding” inhibitors. Cases of “tight binding” or possible “slow binding” inhibitors were handled by the methods described in Copeland R. A. (2013) Evaluation of Enzyme Inhibitors in Drug Discovery. 2nd Ed., John Wiley and Sons, Inc., Chapters 5-7.
# The MASP-2 assay protocol was carried out as follows. Test compounds were serially diluted in DMSO and then 100 nL of each dilution was transferred to the assay plate(s). 10 μL of Assay Buffer was added, followed by 15 μL of Enzyme MASP-2 (CCP1-CCP2-SP) in Assay Buffer. 15 μL of Substrate in Assay Buffer was then added and the mixture was mixed to start the reaction. After 20 min at room temperature, 15 μL of a stop solution (0.1 M acetic acid) was added, the sample was mixed, and the plates were read on a SpectraMax i3x Microplate Reader with the data exported as an Excel file. Each assay plate included a “no inhibitor” (DMSO only) control, a “no enzyme” control, and a reference inhibitor control. % Activity values=100*(average test comp. fluorescence−average “no enzyme” fluorescence)/(average “DMSO only” fluorescence−average “no enzyme” fluorescence). IC50 and Ki replicate values were very reproducible, with values well within ±2-fold.
# T2 sequence (O00187 445-686 limits assumed): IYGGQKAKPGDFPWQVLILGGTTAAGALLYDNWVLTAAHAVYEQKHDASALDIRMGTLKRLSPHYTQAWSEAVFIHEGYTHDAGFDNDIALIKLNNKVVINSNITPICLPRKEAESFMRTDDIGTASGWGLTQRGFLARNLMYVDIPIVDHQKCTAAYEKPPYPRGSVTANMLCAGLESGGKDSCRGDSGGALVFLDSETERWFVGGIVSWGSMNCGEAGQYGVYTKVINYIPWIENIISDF
# T2 sequence (O00187 287-444 partner limits assumed): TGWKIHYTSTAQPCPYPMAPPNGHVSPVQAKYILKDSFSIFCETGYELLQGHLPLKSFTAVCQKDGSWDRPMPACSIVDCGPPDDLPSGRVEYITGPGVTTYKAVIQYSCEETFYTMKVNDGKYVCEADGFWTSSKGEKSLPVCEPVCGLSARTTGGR
SMILES,Ki (human α-thrombin),Ki (MASP-2 (CCP1-CCP2-SP))
"Cc1ccc(CNc2nc(Cl)c3n(c2=O)[C@H](C(=O)NCc2cc4cnccc4[nH]2)CC3)cc1C [Compound 26, (S)-N-((1H-pyrrolo[3,2-c]pyridin-2-yl)methyl)-1-chloro-3-((3,4-dimethylbenzyl)amino)-4-oxo-4,6,7,8-tetrahydropyrrolo[1,2-a]pyrazine-6-carboxamide]",10 to 25 µM,< 500 nM
"Cc1nc(N)ccc1CNC(=O)[C@@H]1CCc2c(Cl)nc(NCc3cccc(C(F)F)c3)c(=O)n21 [Compound 16, (S)-N-((6-amino-2-methylpyridin-3-yl)methyl)-1-chloro-3-((3-(difluoromethyl)benzyl)amino)-4-oxo-4,6,7,8-tetrahydropyrrolo[1,2-a]pyrazine-6-carboxamide]",2.5 to 10 µM,< 500 nM
"Cc1cccc([C@@H](C)Nc2ncc3n(c2=O)[C@H](C(=O)NCc2cc4c(s2)CNC4)CC3)c1 [Compound 90, (S)—N-((5,6-dihydro-4H-thieno[2,3-c]pyrrol-2-yl)methyl)-4-oxo-3-(((R)-1-(m-tolyl)ethyl)amino)-4,6,7,8-tetrahydropyrrolo[1,2-a]pyrazine-6-carboxamide]",2.5 to 10 µM,< 500 nM
"Cc1cc(C)cc(CNc2nc(Cl)c3n(c2=O)[C@H](C(=O)NCc2cccnc2C)CC3)c1 [Compound 89, trifluoroacetate]",> 25 µM,2500 to 10000 nM
"COCCCCNc1nc(Cl)c2n(c1=O)[C@H](C(=O)NCc1ccc(N)nc1C)CC2 [Compound 2, (S)-N-((6-amino-2-methylpyridin-3-yl)methyl)-1-chloro-3-((4-methoxybutyl)amino)-4-oxo-4,6,7,8-tetrahydropyrrolo[1,2-a]pyrazine-6-carboxamide]",2.5 to 10 µM,< 500 nM
"O=C(NCc1cc2cnccc2[nH]1)[C@@H]1CCc2c(Cl)nc(NCc3cccc(F)c3)c(=O)n21 [Compound 25, (S)-N-((1H-pyrrolo[3,2-c]pyridin-2-yl)methyl)-1-chloro-3-((3-fluorobenzyl)amino)-4-oxo-4,6,7,8-tetrahydropyrrolo[1,2-a]pyrazine-6-carboxamide]",10 to 25 µM,< 500 nM
"Cc1cccc([C@H](C)Nc2ncc3n(c2=O)[C@H](C(=O)NCc2cc4cnccc4[nH]2)CC3)c1 [Compound 74, (S)-N-((1H-pyrrolo[3,2-c]pyridin-2-yl)methyl)-4-oxo-3-(((S)-1-(m-tolyl)ethyl)amino)-4,6,7,8-tetrahydropyrrolo[1,2-a]pyrazine-6-carboxamide]",0.5 to 2.5 µM,< 500 nM
"Cc1cc(C)cc(CNc2nc(Cl)c3n(c2=O)[C@H](C(=O)NCc2cc4cnccc4[nH]2)CC3)c1 [Compound 1, (S)—N-((1H-pyrrolo[3,2-c]pyridin-2-yl)methyl)-1-chloro-3-((3,5-dimethylbenzyl)amino)-4-oxo-4,6,7,8-tetrahydropyrrolo[1,2-a]pyrazine-6-carboxamide]",10 to 25 µM,< 500 nM
"Cc1cc(C)cc(CNc2ncc3n(c2=O)[C@H](C(=O)NCc2ccc(N)nc2C)CC3)c1 [Compound 36, (S)—N-((6-amino-2-methylpyridin-3-yl)methyl)-3-((3,5-dimethylbenzyl)amino)-4-oxo-4,6,7,8-tetrahydropyrrolo[1,2-a]pyrazine-6-carboxamide]",< 0.5 µM,< 500 nM

# Results, then the compound that gave them:
Ki (human α-thrombin),Ki (MASP-2 (CCP1-CCP2-SP)),SMILES
2.5 to 10 µM,< 500 nM,"C[C@@H](NC(=O)[C@@H]1CCc2cnc(N[C@@H](c3ccccc3)C3CC3)c(=O)n21)c1cc2c(s1)CNC2 [Compound 272, (S)-3-(((R)-cyclopropyl(phenyl)methyl)amino)-N-((R)-1-(5,6-dihydro-4H-thieno[2,3-c]pyrrol-2-yl)ethyl)-4-oxo-4,6,7,8-tetrahydropyrrolo[1,2-a]pyrazine-6-carboxamide trifluoroacetate]"
< 0.5 µM,< 500 nM,N=C(N)c1ccc(CNC(=O)[C@@H]2CCc3c(Cl)nc(NCc4ccccc4)c(=O)n32)cc1 [Compound 243]
0.5 to 2.5 µM,< 500 nM,"Cc1cc(C)cc(CNc2ncc3n(c2=O)[C@H](C(=O)NCc2cc4cnccc4[nH]2)CC32CC2)c1 [Compound 123, (S)-N-((1H-pyrrolo[3,2-c]pyridin-2-yl)methyl)-3′-((3,5-dimethylbenzyl)amino)-4′-oxo-6′,7′-dihydro-4′H-spiro[cyclopropane-1,8′-pyrrolo[1,2-a]pyrazine]-6′-carboxamide trifluoroacetate]"
10 to 25 µM,2500 to 10000 nM,"C[C@H](NC(=O)[C@@H]1CCc2cnc(N[C@@H](c3ccccc3)C(C)(C)C)c(=O)n21)c1cc2c(s1)CNC2 [Compound 270, (S)-N-((S)-1-(5,6-dihydro-4H-thieno[2,3-c]pyrrol-2-yl)ethyl)-3-(((R)-2,2-dimethyl-1-phenylpropyl)amino)-4-oxo-4,6,7,8-tetrahydropyrrolo[1,2-a]pyrazine-6-carboxamide trifluoroacetate]"
2.5 to 10 µM,< 500 nM,COc1cc(C)cc(CNc2ncc3n(c2=O)[C@@H](C(=O)NCc2cc4cnccc4[nH]2)CC3)c1 [Compound 164]
0.5 to 2.5 µM,< 500 nM,"COc1cc(C)cc(CNc2ncc3n(c2=O)[C@H](C(=O)NCc2cc4cnccc4[nH]2)C[C@@H]3Cc2ccccc2)c1 [Compound 141, (6S,8S)-N-((1H-pyrrolo[3,2-c]pyridin-2-yl)methyl)-8-benzyl-3-((3-methoxy-5-methylbenzyl)amino)-4-oxo-4,6,7,8-tetrahydropyrrolo[1,2-a]pyrazine-6-carboxamide]"
10 to 25 µM,500 to 2500 nM,"Cc1cc(F)cc(CNc2ncc3n(c2=O)[C@H](C(=O)NCc2c(C)cc(CN)cc2C)CC3)c1 [Compound 206, trifluoroacetate]"
2.5 to 10 µM,< 500 nM,O=C(NCc1cc2c(s1)CNC2)[C@@H]1CCc2cnc(NCC3(Cc4ccccc4)CCCCC3)c(=O)n21 [Compound 252]
< 0.5 µM,< 500 nM,"Cc1ccccc1[C@@H](C)Nc1ncc2n(c1=O)[C@H](C(=O)NCc1cc3c(s1)CNC3)CC2 [Compound 93, (S)-N-((5,6-dihydro-4H-thieno[2,3-c]pyrrol-2-yl)methyl)-4-oxo-3-(((R)-1-(o-tolyl)ethyl)amino)-4,6,7,8-tetrahydropyrrolo[1,2-a]pyrazine-6-carboxamide]"
> 25 µM,< 500 nM,"Cc1cc2[nH]c(CNC(=O)[C@@H]3CCc4cnc(NCc5ccccc5)c(=O)n43)cc2cn1 [Compound 103, (S)-3-(benzylamino)-N-((6-methyl-1H-pyrrolo[3,2-c]pyridin-2-yl)methyl)-4-oxo-4,6,7,8-tetrahydropyrrolo[1,2-a]pyrazine-6-carboxamide]"
0.5 to 2.5 µM,< 500 nM,COC(CNc1nc(Cl)c2n(c1=O)[C@H](C(=O)NCc1cc3cnccc3[nH]1)CC2)c1ccccc1 (stereo partly shown) [Compound 244]
< 0.5 µM,< 500 nM,"Cc1nc(N)ccc1CNC(=O)[C@@H]1CCc2cnc(NCc3cccc(-n4cccn4)c3)c(=O)n21 [Compound 169, (S)-3-((3-(1H-pyrazol-1-yl)benzyl)amino)-N-((6-amino-2-methylpyridin-3-yl)methyl)-4-oxo-4,6,7,8-tetrahydropyrrolo[1,2-a]pyrazine-6-carboxamide trifluoroacetate]"
2.5 to 10 µM,,"COc1ccnc(CNC(=O)[C@@H]2CCc3cnc(NCc4cc(C)cc(F)c4)c(=O)n32)c1F [Compound 190, (S)-N-((3-fluoro-4-methoxypyridin-2-yl)methyl)-3-((3-fluoro-5-methylbenzyl)amino)-4-oxo-4,6,7,8-tetrahydropyrrolo[1,2-a]pyrazine-6-carboxamide trifluoroacetate]"
